Laboratory results published in patent publication US8354436B2 (4SC Discovery GmbH, priority 2011, dated 2013).
Like-named read-outs stand apart in the source and are kept apart here.

Key:
[1] = system: PBMC from healthy human donors; assay: T cell proliferation assay (PHA-stimulated human PBMC, BrdU ELISA); type: cell-based; conditions: 48 hours
Description: Cell proliferation was analysed using the BrdU based cell proliferation ELISA from Roche (Mannheim, Germany) according to the manufacturer's instructions. T Cell Proliferation Assay Peripheral blood mononuclear cells (PBMC) from healthy human donors were isolated by centrifugation over Ficoll-Hypaque (Sigma-Aldrich, Germany) according to manufacturer's instructions. Purified PBMC were washed twice with PBS and resuspended in RPMI1640 culture medium supplemented with 10% dialyzed heat inactivated fetal calf serum, 1.5 mM L-glutamine, 100 U penicillin/ml, and […] (all from PAN Biotech, Aidenbach, Germany). For stimulation, PBMC were seeded at 1×10^5 cells/well, activated with 2 μg/ml phytohaemagglutinin (PHA, Sigma) and incubated with the test compound. After 48 hours proliferation was measured using the BrdU based cell proliferation ELISA from Roche (Mannheim, Germany) according to the manual.

IFN-γ = IFN-γ production by PHA-stimulated human PBMC (OptEIA human IFN-g ELISA); type: cell-based; conditions: PHA-stimulated human PBMC, 48 hours; column C; read-out: IC50 (IFNγ)
Description: Analysis of Proliferation of and Cytokine Production by Human PBMC Stimulated with PHA
Peripheral blood mononuclear cells (PBMC) from healthy human donors were purified using Accuspin™ System-Histopaque-1077 (Sigma) according to the protocol recommended by the manufacturer. Purified PBMC were then washed twice with phosphate-buffered saline (PBS) and resuspended in RPMI1640 culture medium supplemented with 10% dialyzed heat inactivated fetal calf serum, 1.5 mM L-glutamine, 100 U penicillin/ml, and […] (all from PAN Biotech, Aidenbach, Germany). For stimulation, PBMC were seeded at 1×10^5 cells/well, activated with 2 μg/ml phytohaemagglutinin (PHA, Sigma) and incubated with the test compounds for 48 hours. IL-17A, IL-17F and INF-γ were then determined in the culture supernatant using a Luminex BioPlex system, following the manufacturer's instructions (BioRad, Munich, Germany). For screening, compounds were used at 10, 1, 0.1 and 0.01 μM. To determine the IC50, compounds were titrated semilogarithmically.
Cytokines were determined in the aforementioned culture supernatant using the following methods: IL-17AA/AF was measured using the Luminex BioPlex system (BioRad, Munich, Germany); IL-17AA using the human homodimer IL-17A ELISA Ready Set Go Kit from eBioscience (Frankfurt, Germany); IL-17FF using the human IL-17F ELI-Pair from Hölzel DiagnosticaGmBH (Köln, Germany); and IFN-γ using the OptEIA human IFN-g ELISA from BD Bioscience (Heidelberg, Germany), all following the manufacturer's instructions.

[2] = PHA-stimulated human PBMC, column D, read-out: IC50 (Tcell proliferation)

IC50 (IFN-γ) [nM]	Structure (SMILES)	IC50 [1, 2] [nM]	IC50 ([1]; human PBMC, 2 μg/ml PHA, read-out: D: IC50 (Tcell proliferation)) [nM]
1000 to 10000	O=C(c1c(-c2c(F)cccc2Cl)noc1-c1cnn(-c2ccccc2F)c1C(F)(F)F)N1CCN(Cc2cccc(Cl)c2)CC1 [Example I-24, (3-(2-chloro-6-fluorophenyl)-5-(1-(2-fluorophenyl)-5-(trifluoromethyl)-1H-pyrazol-4-yl)isoxazol-4-yl)(4-(3-chlorobenzyl)piperazin-1-yl)methanone]	100 to 1000	–
–	COC(=O)c1c(-c2c(F)cccc2Cl)noc1-c1cnn(-c2cccc(F)c2)c1C(F)(F)C(F)F [Example I-64, methyl 3-(2-chloro-6-fluorophenyl)-5-(1-(3-fluorophenyl)-5-(1,1,2,2-tetrafluoroethyl)-1H-pyrazol-4-yl)isoxazole-4-carboxylate]	1000 to 10000	–
1000 to 10000	COC(=O)c1c(-c2ccccc2)noc1-c1cnn(-c2cccc(F)c2)c1C(F)(F)F [Example I-51, methyl 5-(1-(3-fluorophenyl)-5-(trifluoromethyl)-1H-pyrazol-4-yl)-3-phenylisoxazole-4-carboxylate]	1000 to 10000	–
1000 to 10000	CCOC(=O)c1c(-c2c(F)cccc2Cl)noc1-c1cnn(-c2ccc(C#N)cc2)c1C(F)(F)F [IB-40, ethyl 3-(2-chloro-6-fluorophenyl)-5-(1-(4-cyanophenyl)-5-(trifluoromethyl)-1H-pyrazol-4-yl)-isoxazole-4-carboxylate]	1000 to 10000	–
–	COC(=O)c1c(-c2c(F)cccc2Cl)noc1-c1cnn(-c2nccc(C(F)(F)F)n2)c1C(F)(F)F [Example I-67, methyl 3-(2-chloro-6-fluorophenyl)-5-(5-(trifluoromethyl)-1-(4-(trifluoromethyl)pyrimidin-2-yl)-1H-pyrazol-4-yl)isoxazole-4-carboxylate]	100 to 1000	–
–	COC(=O)c1c(-c2c(F)cccc2Cl)noc1-c1cnn(-c2ccc(OC(F)(F)F)cc2)c1C(F)(F)F [Example I-33, methyl 3-(2-chloro-6-fluorophenyl)-5-(1-(4-(trifluoromethoxy)phenyl)-5-(trifluoromethyl)-1H-pyrazol-4-yl)isoxazole-4-carboxylate]	1000 to 10000	–
–	COC(=O)c1c(-c2c(F)cccc2Cl)noc1-c1cnn(-c2cccc(Cl)c2Cl)c1C(F)(F)F [Example I-4, methyl 3-(2-chloro-6-fluorophenyl)-5-(1-(2,3-dichlorophenyl)-5-(trifluoromethyl)-1H-pyrazol-4-yl)isoxazole-4-carboxylate]	1000 to 10000	–
1000 to 10000	NC(=O)c1c(-c2c(F)cccc2Cl)noc1-c1cnn(-c2cccc(F)c2)c1C(F)(F)F [Example I-124, 3-(2-chloro-6-fluorophenyl)-5-(1-(3-fluorophenyl)-5-(trifluoromethyl)-1H-pyrazol-4-yl)isoxazole-4-carboxamide]	1000 to 10000	–
1000 to 10000	CON(C)C(=O)c1c(-c2c(F)cccc2Cl)noc1-c1cnn(-c2ccccc2Br)c1C(F)(F)F [IB-74, 5-(1-(-2-bromophenyl)-5-(trifluoromethyl)-1H-pyrazol-4-yl)-3-(2-chloro-6-fluorophenyl)-N-methoxy-N-methylisoxazole-4-carboxamide]	1000 to 10000	–
–	COC(=O)c1c(-c2ccccc2)noc1-c1cnn(-c2ccc(OC(F)(F)F)cc2)c1C(F)(F)F [Example I-74, methyl 3-phenyl-5-(1-(4-(trifluoromethoxy)phenyl)-5-(trifluoromethyl)-1H-pyrazol-4-yl)isoxazole-4-carboxylate]	1000 to 10000	–
1000 to 10000	CC(C)OC(=O)c1c(-c2c(F)cccc2Cl)noc1-c1cnn(-c2cccc(S(N)(=O)=O)c2)c1C(F)(F)F [IB-73, isopropyl 3-(2-chloro-6-fluorophenyl)-5-(1-(3-sulfamoylphenyl)-5-(trifluoromethyl)-1H-pyrazol-4-yl)isoxazole-4-carboxylate]	1000 to 10000	–
1000 to 10000	CC(=O)Nc1c(-c2c(F)cccc2Cl)noc1-c1cnn(-c2cccc(Cl)c2)c1C(F)(F)F [IB-39, N-(3-(2-chloro-6-fluorophenyl)-5-(1-(3-chlorophenyl)-5-(trifluoromethyl)-1H-pyrazol-4-yl)-isoxazol-4-yl)acetamide]	1000 to 10000	–
–	CCOC(=O)c1c(-c2onc(-c3c(F)cccc3Cl)c2C(=O)OC)cnn1-c1cc(F)cc(F)c1 [Example I-39, methyl 3-(2-chloro-6-fluorophenyl)-5-(1-(3,5-difluorophenyl)-5-(ethoxycarbonyl)-1-H-pyrazol-4-yl)isoxazole-4-carboxylate]	1000 to 10000	–
10 to 100	O=C(c1c(-c2c(F)cccc2Cl)noc1-c1cnn(-c2ccccc2F)c1C(F)(F)F)N1CCCCC1 [Example I-21, (3-(2-chloro-6-fluorophenyl)-5-(1-(2-fluorophenyl)-5-(trifluoromethyl)-1H-pyrazol-4-yl)isoxazol-4-yl)(piperidin-1-yl)methanone]	10 to 100	–
1000 to 10000	CC(C)=NNC(=O)c1c(-c2c(F)cccc2Cl)noc1-c1cnn(-c2cccc(F)c2)c1 [IB-29, 3-(2-chloro-6-fluorophenyl)-5-(1-(3-fluorophenyl)-1H-pyrazol-4-yl)-N′-(propan-2-ylidene)isoxazole-4-carbohydrazide]	1000 to 10000	–
–	CC(C)Cn1ncc(-c2onc(-c3c(F)cccc3Cl)c2-c2nnn[nH]2)c1C(F)(F)F [Example 1, 3-(2-chloro-6-fluorophenyl)-5-(1-isobutyl-5-(trifluoromethyl)-1H-pyrazol-4-yl)-4-(1H-tetrazol-5-yl)isoxazole]	–	1000 to 10000
–	COC(=O)c1c(-c2c(F)cccc2Cl)noc1-c1cnn(-c2onc(-c3ccc(Cl)cc3)c2C(=O)OC)c1C(F)(F)F [Example I-131, methyl 3-(2-chloro-6-fluorophenyl)-5-{[1-(4-methoxycarbonyl-3-(4-chlorophenyl)isoxazol-5-yl)-5-trifluoromethyl-1H-pyrazol-4-yl]}-isoxazole-4-carboxylate]	1000 to 10000	–
100 to 1000	Fc1ccccc1-n1ncc(-c2onc(-c3c(F)cccc3Cl)c2Br)c1C(F)(F)F [IB-26, 4-bromo-3-(2-chloro-6-fluorophenyl)-5-(1-(2-fluorophenyl)-5-(trifluoromethyl)-1H-pyrazol-4-yl)isoxazole]	1000 to 10000	–
–	O=C(O)c1c(-c2ccccc2F)noc1-c1cnn(-c2cccc(F)c2)c1C(F)(F)F [Example I-91, 3-(2-fluorophenyl)-5-(1-(3-fluorophenyl)-5-(trifluoromethyl)-1H-pyrazol-4-yl)isoxazole-4-carboxylic acid]	1000 to 10000	–
–	COC(=O)c1c(-c2c(F)cccc2Cl)noc1-c1cnn(-c2ccccc2I)c1C(F)(F)F [Example I-88, methyl 3-(2-chloro-6-fluorophenyl)-5-(1-(2-iodophenyl)-5-(trifluoromethyl)-1H-pyrazol-4-yl)isoxazole-4-carboxylate]	1000 to 10000	–
–	COC(=O)c1c(-c2c(F)cccc2Cl)noc1-c1cnn(-c2ncc(C(F)(F)F)cc2Cl)c1C(F)(F)F [Example I-87]	1000 to 10000	–
–	O=C(O)c1c(-c2c(F)cccc2Cl)noc1-c1cnn(Cc2ccccc2F)c1C(F)(F)F [IB-86, 3-(2-chloro-6-fluorophenyl)-5-(1-(2-fluorobenzyl)-5-(trifluoromethyl)-1H-pyrazol-4-yl)isoxazole-4-carboxylic acid]	1000 to 10000	–
–	COC(=O)c1c(-c2c(F)cccc2Cl)noc1-c1cnn(-c2nc(-c3ccc(F)cc3)cs2)c1C(F)(F)F [Example I-54, methyl 3-(2-chloro-6-fluorophenyl)-5-(1-(4-(4-fluorophenyl)thiazol-2-yl)-5-(trifluoromethyl)-1H-pyrazol-4-yl)isoxazole-4-carboxylate]	1000 to 10000	–
–	CCOC(=O)c1c(-c2onc(-c3c(F)cccc3Cl)c2C(=O)OC)cnn1-c1ccccc1 [Example I-34, methyl 3-(2-chloro-6-fluorophenyl)-5-(5-(ethoxycarbonyl)-1-phenyl-1Hpyrazol-4-yl)isoxazole-4-carboxylate]	1000 to 10000	–
–	CCOc1cc(-n2ncc(-c3onc(-c4c(F)cccc4Cl)c3C(=O)OC)c2C(F)(F)F)ncn1 [Example I-116, methyl 3-(2-chloro-6-fluorophenyl)-5-(1-(6-ethoxypyrimidin-4-yl)-5-(trifluoromethyl)-1H-pyrazol-4-yl)isoxazole-4-carboxylate]	1000 to 10000	–
–	COC(=O)c1c(-c2ccc(Cl)c(Cl)c2)noc1-c1cnn(-c2cccc(F)c2)c1C(F)(F)F [Example I-97, methyl 3-(3,4-dichlorophenyl)-5-(1-(3-fluorophenyl)-5-(trifluoromethyl)-1H-pyrazol-4-yl)isoxazole-4-carboxylate]	1000 to 10000	–
